Measured values: patent publication US6355799B1, “Substituted benzene compounds, process for their preparation, and herbicidal and defoliant compositions containing them” (ISK Americas Incorporated, priority 1997, dated 2002)

Tests used:
Format in all cases: in vivo
[1] = tested on: redroot pigweed (Amaranthus retroflexus, AMARE); experiment: Pre-emerge test, greenhouse herbicide activity screening; conditions: pre-emerge, phytotoxicity rating 0-100 at 14 days after application
In short: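 Rating: 0–100 visual injury, 14 DAA. Application: acetone, 187 l/ha, 15–1000 g ai/ha, flat-fan track sprayer with nozzle 40–45 cm above soil or canopy. Post-emerge runs used 0.25% v/v surfactant on 2–3 leaf plants.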

[2] = tested on: barnyardgrass (Echinochloa crus-galli, ECHCG); experiment: as above; conditions: pre-emerge, phytotoxicity rating 0-100 at 14 days after application
In short: (§1)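 Plants grown in 10 cm pots of sandy loam mix received acetone-dissolved compounds through a moving flat-fan nozzle. Doses ranged from 15 to 1000 g ai/ha. Pre-emerge pots were seeded one day earlier, post-emerge pots 8–21 days earlier. Fourteen days on, each pot was graded 0–100 for damage.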

[3] = tested on: green foxtail (Setaria viridis, SETVI); experiment: as above; conditions: pre-emerge, phytotoxicity rating 0-100 at 14 days after application
In short: as §1

[4] = tested on: ivyleaf morningglory (Ipomoea hederacea, IPOHE); experiment: as above; conditions: pre-emerge, phytotoxicity rating 0-100 at 14 days after application
In short: as §1

[5] = tested on: johnsongrass (Sorghum halepense, SORHA); experiment: as above; conditions: pre-emerge, phytotoxicity rating 0-100 at 14 days after application
In short: as §1

[6] = tested on: lambsquarters (Chenopodium album, CHEAL); experiment: as above; conditions: pre-emerge, phytotoxicity rating 0-100 at 14 days after application
In short: as §1

[7] = tested on: large crabgrass (Digitaria sanguinalis, DIGSA); experiment: as above; conditions: pre-emerge, phytotoxicity rating 0-100 at 14 days after application
In short: as §1

[8] = tested on: sicklepod (Cassia obtusifolia, CASOB); experiment: as above; conditions: pre-emerge, phytotoxicity rating 0-100 at 14 days after application
In short: as §1

[9] = tested on: velvetleaf (Abutilon theophrasti, ABUTH); experiment: as above; conditions: pre-emerge, phytotoxicity rating 0-100 at 14 days after application
In short: as §1

[10] = tested on: field corn (Zea mays L., var. Dekalb 535, CORN); experiment: Pre-emerge test, crop safety; conditions: crop damage, pre-emerge, phytotoxicity rating 0-100 at 14 days after application
In short: as §1

[11] = tested on: upland rice (Oryza sp., var. Tebonnet, RICE); experiment: Pre-emerge test, crop safety; conditions: crop damage, pre-emerge, phytotoxicity rating 0-100 at 14 days after application
In short: as §1

[12] = tested on: barnyardgrass (Echinochloa crus-galli, ECHCG); experiment: Post-emerge test, greenhouse herbicide activity screening; conditions: post-emerge, phytotoxicity rating 0-100 at 14 days after application
In short: (§2)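 Fourteen days after spraying, crop and weed injury was graded visually from 0, no effect, to 100, every plant dead. Test substances were dissolved in acetone and applied at 15–1000 g ai/ha with a flat-fan nozzle. Application was either pre-emergence, one day after sowing, or post-emergence at the 2–3 leaf stage.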

[13] = tested on: green foxtail (Setaria viridis, SETVI); experiment: as above; conditions: post-emerge, phytotoxicity rating 0-100 at 14 days after application
In short: as §2

[14] = tested on: ivyleaf morningglory (Ipomoea hederacea, IPOHE); experiment: as above; conditions: post-emerge, phytotoxicity rating 0-100 at 14 days after application
In short: as §2

[15] = tested on: johnsongrass (Sorghum halepense, SORHA); experiment: as above; conditions: post-emerge, phytotoxicity rating 0-100 at 14 days after application
In short: as §2

[16] = tested on: lambsquarters (Chenopodium album, CHEAL); experiment: as above; conditions: post-emerge, phytotoxicity rating 0-100 at 14 days after application
In short: as §2

[17] = tested on: large crabgrass (Digitaria sanguinalis, DIGSA); experiment: as above; conditions: post-emerge, phytotoxicity rating 0-100 at 14 days after application
In short: as §2

[18] = tested on: redroot pigweed (Amaranthus retroflexus, AMARE); experiment: as above; conditions: post-emerge, phytotoxicity rating 0-100 at 14 days after application
In short: as §2

[19] = tested on: sicklepod (Cassia obtusifolia, CASOB); experiment: as above; conditions: post-emerge, phytotoxicity rating 0-100 at 14 days after application
In short: as §2

[20] = tested on: velvetleaf (Abutilon theophrasti, ABUTH); experiment: as above; conditions: post-emerge, phytotoxicity rating 0-100 at 14 days after application
In short: as §2

[21] = tested on: field corn (Zea mays L., var. Dekalb 535, CORN); experiment: Post-emerge test, crop safety; conditions: post-emerge, crop damage rating 0-100 at 14 days after application
In short: (§3)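 Each test used a mechanized track sprayer delivering 187 l/ha of acetone solution at 15–1000 g ai/ha. Post-emerge foliage at 2–3 leaves was treated with added 0.25% v/v non-ionic surfactant and bottom-watered only. Injury was assessed on day 14, where 100 means total kill.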

[22] = tested on: upland rice (Oryza sp., var. Tebonnet, RICE); experiment: Post-emerge test, crop safety; conditions: post-emerge, crop damage rating 0-100 at 14 days after application
In short: as §3

SMILES: C=Cc1ccc(C(=O)Nc2c(OC)c(Cl)cc(F)c2N2C(=O)C3=C(CCCC3)C2=O)cc1 [8-30]
- Pre-emerge Herbicidal Activity AMARE ([1]; rate 63 g ai/ha): 100
- Pre-emerge Herbicidal Activity AMARE ([1]; rate 250 g ai/ha): 100
- Pre-emerge Herbicidal Activity ECHCG ([2]; rate 63 g ai/ha): 0
- Pre-emerge Herbicidal Activity ECHCG ([2]; rate 250 g ai/ha): 20
- Pre-emerge Herbicidal Activity SETVI ([3]; rate 63 g ai/ha): 20
- Pre-emerge Herbicidal Activity SETVI ([3]; rate 250 g ai/ha): 70
- Pre-emerge Herbicidal Activity IPOHE ([4]; rate 63 g ai/ha): 20
- Pre-emerge Herbicidal Activity IPOHE ([4]; rate 250 g ai/ha): 10
- Pre-emerge Herbicidal Activity SORHA ([5]; rate 63 g ai/ha): 0
- Pre-emerge Herbicidal Activity SORHA ([5]; rate 250 g ai/ha): 30
- Pre-emerge Herbicidal Activity CHEAL ([6]; rate 63 g ai/ha): 100
- Pre-emerge Herbicidal Activity CHEAL ([6]; rate 250 g ai/ha): 100
- Pre-emerge Herbicidal Activity DIGSA ([7]; rate 63 g ai/ha): 30
- Pre-emerge Herbicidal Activity DIGSA ([7]; rate 250 g ai/ha): 50
- Pre-emerge Herbicidal Activity CASOB ([8]; rate 63 g ai/ha): 20
- Pre-emerge Herbicidal Activity CASOB ([8]; rate 250 g ai/ha): 20
- Pre-emerge Herbicidal Activity ABUTH ([9]; rate 63 g ai/ha): 70
- Pre-emerge Herbicidal Activity ABUTH ([9]; rate 250 g ai/ha): 90
- Pre-emerge Herbicidal Activity CORN ([10]; rate 63 g ai/ha): 0
- Pre-emerge Herbicidal Activity CORN ([10]; rate 250 g ai/ha): 5
- Pre-emerge Herbicidal Activity RICE ([11]; rate 63 g ai/ha): 5
- Pre-emerge Herbicidal Activity RICE ([11]; rate 250 g ai/ha): 10
- Post-emerge Herbicidal Activity ECHCG ([12]; 63 g ai/ha): 30
- Post-emerge Herbicidal Activity ECHCG ([12]; 250 g ai/ha): 70
- Post-emerge Herbicidal Activity SETVI ([13]; 63 g ai/ha): 40
- Post-emerge Herbicidal Activity SETVI ([13]; 250 g ai/ha): 70
- Post-emerge Herbicidal Activity IPOHE ([14]; 63 g ai/ha): 100
- Post-emerge Herbicidal Activity IPOHE ([14]; 250 g ai/ha): 100
- Post-emerge Herbicidal Activity SORHA ([15]; 63 g ai/ha): 30
- Post-emerge Herbicidal Activity SORHA ([15]; 250 g ai/ha): 50
- Post-emerge Herbicidal Activity CHEAL ([16]; 63 g ai/ha): 100
- Post-emerge Herbicidal Activity CHEAL ([16]; 250 g ai/ha): 100
- Post-emerge Herbicidal Activity DIGSA ([17]; 63 g ai/ha): 20
- Post-emerge Herbicidal Activity DIGSA ([17]; 250 g ai/ha): 40
- Post-emerge Herbicidal Activity AMARE ([18]; 63 g ai/ha): 100
- Post-emerge Herbicidal Activity AMARE ([18]; 250 g ai/ha): 100
- Post-emerge Herbicidal Activity CASOB ([19]; 63 g ai/ha): 80
- Post-emerge Herbicidal Activity CASOB ([19]; 250 g ai/ha): 100
- Post-emerge Herbicidal Activity ABUTH ([20]; 63 g ai/ha): 100
- Post-emerge Herbicidal Activity ABUTH ([20]; 250 g ai/ha): 100
- Post-emerge Herbicidal Activity CORN ([21]; 63 g ai/ha): 10
- Post-emerge Herbicidal Activity CORN ([21]; 250 g ai/ha): 15
- Post-emerge Herbicidal Activity RICE ([22]; 63 g ai/ha): 40
- Post-emerge Herbicidal Activity RICE ([22]; 250 g ai/ha): 35
